{
  "source": "patent US9486507B2",
  "about": "“Pro-coagulant compounds and methods of use thereof” (priority 2011, dated 2016)",
  "key": {"platelets": {"test_system": "platelets", "assay": "Platelet aggregation (aggregometer)", "assay_type": "cell-based", "description": "ADP was used as a positive control for platelet aggregation."}, "[1]": {"target": "T1, FXa or the prothrombinase complex (Homo sapiens, UniProt P00742)", "T1 construct": "Under these conditions FIXa cleaves the zymogen FX into the active form FXa", "T1 sequence (P00742 41-179 limits assumed)": "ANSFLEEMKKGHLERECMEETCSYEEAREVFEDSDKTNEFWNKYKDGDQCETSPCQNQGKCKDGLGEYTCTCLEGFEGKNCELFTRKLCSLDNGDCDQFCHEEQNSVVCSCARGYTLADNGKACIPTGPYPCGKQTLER", "T1 sequence (P00742 235-488 limits assumed)": "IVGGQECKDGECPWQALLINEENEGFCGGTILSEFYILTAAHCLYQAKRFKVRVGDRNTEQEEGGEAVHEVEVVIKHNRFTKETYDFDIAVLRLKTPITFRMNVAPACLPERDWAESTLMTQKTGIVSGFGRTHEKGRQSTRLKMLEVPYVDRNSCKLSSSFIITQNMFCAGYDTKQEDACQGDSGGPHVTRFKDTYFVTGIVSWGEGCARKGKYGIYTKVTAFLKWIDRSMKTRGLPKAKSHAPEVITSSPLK", "assay": "FXa / prothrombinase activity in purified thrombin generation assay", "assay_type": "biochemical", "settings": "1 μM; FXa 0.05 ug/mL, with or without FV", "protocol": "In another experiment it was determined whether or not the compounds of the present disclosure directly enhance the activity of FXa or the prothrombinase complex."}, "FIXa [2]": {"target": "T2, FIXa (Homo sapiens, UniProt P00740)", "T2 sequence (P00740 47-191 limits assumed)": "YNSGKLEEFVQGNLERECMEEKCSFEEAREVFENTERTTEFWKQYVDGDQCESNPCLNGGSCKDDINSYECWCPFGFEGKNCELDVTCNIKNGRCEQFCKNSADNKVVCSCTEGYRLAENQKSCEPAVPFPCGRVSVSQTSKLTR", "T2 sequence (P00740 227-461 limits assumed)": "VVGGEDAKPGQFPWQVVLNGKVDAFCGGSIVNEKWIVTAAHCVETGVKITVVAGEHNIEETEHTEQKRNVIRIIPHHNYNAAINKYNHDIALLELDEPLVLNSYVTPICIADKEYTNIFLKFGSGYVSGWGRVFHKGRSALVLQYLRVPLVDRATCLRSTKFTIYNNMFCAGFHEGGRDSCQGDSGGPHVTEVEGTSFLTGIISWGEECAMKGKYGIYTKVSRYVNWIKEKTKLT", "assay": "FXa generation assay with human FIXa", "assay_type": "biochemical", "parameters": "purchased Haematologic Technologies"}, "FIXa [3]": {"target": "T2, FIXa", "assay": "Heparin accelerated FIXa-AT complex formation assay", "assay_type": "biochemical", "parameters": "purchased Haematologic Technologies", "settings": "with heparin, 0 min"}, "[4]": {"test_system": "purified recombinant human coagulation factors", "assay": "Thrombin generation assay using purified hemostatic components", "assay_type": "biochemical"}, "[5]": {"test_system": "FVIII deficient human plasma", "assay": "Thrombin generation assay (TGA) in FVIII-deficient plasma", "assay_type": "biochemical", "settings": "for Thrombin Above Baseline (nM): HRF FVIII-deficient plasma (1)"}, "[6]": {"test_system": "canine FVIII-deficient plasma", "assay": "ROTEM in canine FVIII-deficient plasma", "assay_type": "biochemical", "settings": "canine HemA plasma, lyophilized human platelets, 10 fM lipTF"}, "FIXa [7]": {"target": "T2, FIXa", "assay": "Km/Kcat of FIXa for the substrate FX (FXa generation assay)", "assay_type": "biochemical", "parameters": "purchased Haematologic Technologies", "protocol": "To determine the Km and Kcat of FIXa or FVIIa for the substrate FX, the FXa generation assay described above was used with the following modifications. […] Reactions were set up with varying concentrations of FX ranging between 400 and 0.8 nM and the rates of FXa generation were determined for each peptide at the different FX concentrations tested as described above. […] The catalytic constant (Kcat) was calculated by normalizing the Vmax to the enzyme concentration.\nFIXa was used at 10 nM, and FX was used at 10-1000 nM. The assay was performed in the presence of phospholipids (PL) and calcium chloride."}, "FVIIa": {"target": "T3, FVIIa (Homo sapiens, UniProt P08709)", "T3 construct": "The two-chain Factor VIIa is a polypeptide produced from FVII by hydrolysis of the Arg152-Ile153 peptide bond of FVII; purchased Haematologic Technologies", "T3 sequence (P08709 61-212 limits assumed)": "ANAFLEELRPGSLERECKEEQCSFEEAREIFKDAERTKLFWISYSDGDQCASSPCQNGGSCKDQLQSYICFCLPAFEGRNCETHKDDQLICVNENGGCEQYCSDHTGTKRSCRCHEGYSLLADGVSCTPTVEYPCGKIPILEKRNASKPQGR", "T3 sequence (P08709 213-466 limits assumed)": "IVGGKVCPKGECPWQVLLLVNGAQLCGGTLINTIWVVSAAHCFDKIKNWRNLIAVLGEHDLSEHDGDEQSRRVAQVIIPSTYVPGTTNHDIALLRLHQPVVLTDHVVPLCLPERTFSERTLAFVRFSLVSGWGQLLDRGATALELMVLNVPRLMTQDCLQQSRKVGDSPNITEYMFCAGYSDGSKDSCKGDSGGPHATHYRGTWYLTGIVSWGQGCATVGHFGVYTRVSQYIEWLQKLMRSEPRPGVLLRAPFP", "assay": "Km/Kcat of FVIIa for the substrate FX (FXa generation assay)", "assay_type": "biochemical", "settings": "presence vs absence of compound 5", "protocol": "Similarly, in order to measure the catalytic activity of FVIIa, a FXa generation assay measuring the ability of the compounds of the present disclosure to enhance the catalytic activity of FVIIa was established. The difference between the two assays was that the final concentration of 10 nM hFIXa was replaced with 10 nM hFVIIa. The remaining reagents and assay procedures described above were unchanged.\nTo determine the Km and Kcat of FIXa or FVIIa for the substrate FX, the FXa generation assay described above was used with the following modifications. A single peptide concentration was tested (typically one that gave the maximal rate of FXa generation) and the concentration of all assay components was similar to that described above with the exception of FX. Reactions were set up with varying concentrations of FX ranging between 400 and 0.8 nM and the rates of FXa generation were determined for each peptide at the different FX concentrations tested as described above. For each peptide assayed, the data were fitted to the following equation that gives the Michaelis-Menten constant (Km) and the Vmax for FIXa or FVIIa: v=Vmax [FX]/Km+[FX], wherein v is the rate of FXa generation determined as described above. The catalytic constant (Kcat) was calculated by normalizing the Vmax to the enzyme concentration."}, "α-thrombin": {"target": "α-thrombin (Homo sapiens, UniProt P00734)", "assay": "Fibrin generation assay (thrombin activity)", "assay_type": "biochemical", "settings": "compound 5 1 uM; α-thrombin 0 or 0.1 IU/mL", "protocol": "The generation of fibrin was determined by measuring the absorbance at OD405 with the Biotek Synergy 2 multi-detection microplate reader."}, "[8]": {"settings": "hFIXa 10 nM, FX 10-1000 nM, PL, CaCl2, compound 1 3 μM, compounds 3, 4, 5 1 μM, compound C 10 μM"}},
  "note": "Where “and” joins values, the source holds several entries; their conditions need not be identical. Equal values may be shown once.",
  "data": [
    {"substance": "rRAPGKLTCLASYCWLFWTGIA [Compound 5]", "values": [
      {"measurement": "effect on ADP-activated platelets", "setting": "platelets; 30 μM", "result": "only a moderate effect"},
      {"measurement": "induction of platelet aggregation", "setting": "platelets; compound 5 about 30 μM, compound 22 10 μM and 30 μM", "result": "did not induce platelet aggregation"},
      {"measurement": "effect on ADP-activated platelets", "setting": "platelets; concentration of up to 10 μM", "result": "did not exhibit a significant effect"},
      {"measurement": "catalytic activity of FXa or the prothrombinase complex", "setting": "[1]", "result": "did not substantially increase the catalytic activity of FXa or the prothrombinase complex"},
      {"measurement": "Vmax", "setting": "FIXa [2]; FXa generation assay, 10 nM hFIXa, 100 nM hFX, class symbols", "result": "(+++) ((+++)>2)"},
      {"measurement": "increase of FIXa catalytic activity, % of control", "setting": "FIXa [2]; absence of PL", "result": "about 80%"},
      {"measurement": "% FIXa-AT complex formation", "setting": "FIXa [3]; Compound 5 0.1 μM", "result": 0, "unit": "%"},
      {"measurement": "% FIXa-AT complex formation", "setting": "FIXa [3]; Compound 5 1 μM", "result": 0, "unit": "%"},
      {"measurement": "% FIXa-AT complex formation", "setting": "FIXa [3]; Compound 5 10 μM", "result": 0, "unit": "%"},
      {"measurement": "thrombin generation, FXIa dependence", "setting": "[4]; compound 5 1 μM, 0, 50% or 100% FXIa (FIG. 8)", "result": "dependent on the FXIa concentration"},
      {"measurement": "thrombin generation, FIXa dependence", "setting": "[4]; compound 5 1 μM, 1%, 10% or 100% (3.1 μg/mL) FIXa (FIG. 7)", "result": "dependent on the FIXa concentration"},
      {"measurement": "thrombin generation without FIX/FIXa", "setting": "[4]; compound 5 1 μM, FVII, FVIIa, TF, FV, FX, FII, ATIII, TFPI, platelets", "result": "enhanced thrombin generation in the absence of FIX/FIXa"},
      {"measurement": "thrombin generation, dose dependence", "setting": "[4]; compound 5 at 1 nM, 10 nM, 100 nM, 1 μM, 2 μM (FIG. 6)", "result": "enhances thrombin generation in a dose-dependent manner"},
      {"measurement": "thrombin generation", "setting": "[4]; compounds 1 μM, FVIII 0.1 or 1 IU/mL (FIG. 5)", "result": "induce thrombin generation"},
      {"measurement": "additive effect with FVIII on thrombin generation", "setting": "[5]; 0.1 pM lipidated TF, low amounts of rFVIII (FIG. 2)", "result": "shows additive thrombin generation activity with FVIII"},
      {"measurement": "amount of thrombin generated, as rFVIII equivalent", "setting": "[5]; 10 μM compound 5, 0.1 pM lipTF", "result": "about 0.2 IU/mL"},
      {"measurement": "amount of thrombin generated, compared with FVIII", "setting": "[5]; 5 or 10 μM compound 5, 0.1 pM lipTF", "result": "> 0.1", "unit": "U/mL"},
      {"measurement": "Thrombin Above Baseline (nM)", "setting": "[5]; 2.5 μM", "result": "+ (1-10 nM (1) or 1-29 nM (2) (+))"},
      {"measurement": "Thrombin Above Baseline (nM)", "setting": "[5]; 5 μM", "result": "+ (1-10 nM (1) or 1-29 nM (2) (+))"},
      {"measurement": "Thrombin Above Baseline (nM)", "setting": "[5]; 10 μM", "result": "++ (11-20 nM (1) or 30-59 nM (2) (++))"},
      {"measurement": "Thrombin Above Baseline (nM)", "setting": "[5]; 20 μM", "result": "++ (11-20 nM (1) or 30-59 nM (2) (++))"},
      {"measurement": "lag time", "setting": "[5]; compound 5 at 10 μM and 5 μM, 0.1 pM lipTF (FIG. 3)", "result": "shorter lag time than 0.1 or 0.25 U/mL of FVIII"},
      {"measurement": "Clotting time", "setting": "[6]; 0.625 μM", "result": "687 s and 539 s"},
      {"measurement": "α-angle, degrees", "setting": "[6]; 0.625 μM", "result": 12, "unit": "degrees"},
      {"measurement": "Clotting time", "setting": "[6]; 2.5 μM", "result": "346 s and 356 s"},
      {"measurement": "α-angle, degrees", "setting": "[6]; 2.5 μM", "result": "15; 15 degrees"},
      {"measurement": "Clotting time", "setting": "[6]; 5 μM", "result": "295 s and 369 s"},
      {"measurement": "α-angle, degrees", "setting": "[6]; 5 μM", "result": "29 degrees and 28 degrees"},
      {"measurement": "Clotting time", "setting": "[6]; 10 μM", "result": "286 s and 294 s"},
      {"measurement": "α-angle, degrees", "setting": "[6]; 10 μM", "result": "58 degrees and 57 degrees"},
      {"measurement": "Km", "setting": "FIXa [7]; [8]", "result": "0.011 ± 0.0023", "unit": "µM"},
      {"measurement": "kcat", "setting": "FIXa [7]; [8]", "result": 0.000298, "unit": "s⁻¹"},
      {"measurement": "Δ kcat FIXa", "setting": "FIXa [7]; presence vs absence of compound 5", "result": 199},
      {"measurement": "Δ kcat", "setting": "FIXa [7]; relative to buffer (1.0), compound 1 3 μM, compounds 3, 4, 5 1 μM, compound C 10 μM", "result": 199},
      {"measurement": "Δ kcat FVIIa", "setting": "FVIIa", "result": 2419},
      {"measurement": "catalytic activity of thrombin (fibrin generation, OD405)", "setting": "α-thrombin", "result": "did not substantially increase the catalytic activity of thrombin directly"}
    ]}
  ]
}
